Results: PMC4829233, “Identification of Novel Chemical Scaffolds Inhibiting Trypanothione Synthetase from Pathogenic Trypanosomatids” (PLoS Neglected Tropical Diseases, 2016)
Where two headings read alike, the source gives them in different places.

Experiments:
[1] = target: LiTryS (Leishmania infantum trypanothione synthetase) (Leishmania infantum, UniProt A4I2Z3); assay: biochemical; type: biochemical
[2] = target: TbTryS (Trypanosoma brucei trypanothione synthetase) (Trypanosoma brucei brucei, UniProt Q8IEX1); assay: biochemical
TbTryS (Trypanosoma brucei trypanothione synthetase), sequence (Q8IEX1 1-627): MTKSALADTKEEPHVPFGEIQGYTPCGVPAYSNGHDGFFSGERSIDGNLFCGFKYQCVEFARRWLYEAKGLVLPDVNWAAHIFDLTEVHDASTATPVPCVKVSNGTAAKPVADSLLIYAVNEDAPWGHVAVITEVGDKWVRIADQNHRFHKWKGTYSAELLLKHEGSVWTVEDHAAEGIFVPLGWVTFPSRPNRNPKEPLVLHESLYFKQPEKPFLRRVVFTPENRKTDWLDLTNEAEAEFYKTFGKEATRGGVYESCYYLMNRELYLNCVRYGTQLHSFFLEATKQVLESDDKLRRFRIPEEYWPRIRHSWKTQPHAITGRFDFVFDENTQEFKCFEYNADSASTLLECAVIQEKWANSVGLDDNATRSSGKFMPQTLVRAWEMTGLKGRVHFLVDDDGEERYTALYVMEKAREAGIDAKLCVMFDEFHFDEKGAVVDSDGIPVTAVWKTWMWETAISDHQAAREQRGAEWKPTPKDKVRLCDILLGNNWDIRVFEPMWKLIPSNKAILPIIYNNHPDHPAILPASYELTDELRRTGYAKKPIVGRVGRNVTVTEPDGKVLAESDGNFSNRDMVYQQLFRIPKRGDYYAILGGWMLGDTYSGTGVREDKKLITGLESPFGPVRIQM

[3] = test system: Leishmania infantum promastigotes; design: method as in PMID 24853758; conditions: ref [20], read-out: L. infantum EC50; cited from earlier work
LiTryS = test system: LiTryS; design: method as in PMID 24853758; conditions: ref [20]; cited from earlier work
[4] = target: TcTryS (Trypanosoma cruzi trypanothione synthetase) (Trypanosoma cruzi, UniProt Q9GT49); assay: biochemical; type: biochemical; conditions: read-out: % TcTryS inhibition ± 2σn-1
TcTryS (Trypanosoma cruzi trypanothione synthetase), sequence (Q9GT49 whole entry): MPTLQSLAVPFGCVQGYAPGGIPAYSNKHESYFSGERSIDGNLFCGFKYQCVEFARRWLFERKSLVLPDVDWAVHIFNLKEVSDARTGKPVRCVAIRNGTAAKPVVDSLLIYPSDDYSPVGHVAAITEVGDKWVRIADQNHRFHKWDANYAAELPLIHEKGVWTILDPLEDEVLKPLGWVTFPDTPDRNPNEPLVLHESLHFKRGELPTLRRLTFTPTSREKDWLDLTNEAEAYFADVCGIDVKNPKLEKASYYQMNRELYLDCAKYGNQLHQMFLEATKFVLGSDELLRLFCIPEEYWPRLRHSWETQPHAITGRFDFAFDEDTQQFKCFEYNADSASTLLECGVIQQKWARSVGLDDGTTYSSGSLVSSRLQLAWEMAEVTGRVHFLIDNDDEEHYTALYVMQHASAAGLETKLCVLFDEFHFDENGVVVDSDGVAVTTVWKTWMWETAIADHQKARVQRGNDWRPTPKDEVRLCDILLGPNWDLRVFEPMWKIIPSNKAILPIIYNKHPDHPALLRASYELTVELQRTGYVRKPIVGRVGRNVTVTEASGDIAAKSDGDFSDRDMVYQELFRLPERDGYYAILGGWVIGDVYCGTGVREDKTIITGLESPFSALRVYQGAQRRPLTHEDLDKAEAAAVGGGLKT

LiTryS (Leishmania infantum trypanothione synthetase), sequence (A4I2Z3 1-652): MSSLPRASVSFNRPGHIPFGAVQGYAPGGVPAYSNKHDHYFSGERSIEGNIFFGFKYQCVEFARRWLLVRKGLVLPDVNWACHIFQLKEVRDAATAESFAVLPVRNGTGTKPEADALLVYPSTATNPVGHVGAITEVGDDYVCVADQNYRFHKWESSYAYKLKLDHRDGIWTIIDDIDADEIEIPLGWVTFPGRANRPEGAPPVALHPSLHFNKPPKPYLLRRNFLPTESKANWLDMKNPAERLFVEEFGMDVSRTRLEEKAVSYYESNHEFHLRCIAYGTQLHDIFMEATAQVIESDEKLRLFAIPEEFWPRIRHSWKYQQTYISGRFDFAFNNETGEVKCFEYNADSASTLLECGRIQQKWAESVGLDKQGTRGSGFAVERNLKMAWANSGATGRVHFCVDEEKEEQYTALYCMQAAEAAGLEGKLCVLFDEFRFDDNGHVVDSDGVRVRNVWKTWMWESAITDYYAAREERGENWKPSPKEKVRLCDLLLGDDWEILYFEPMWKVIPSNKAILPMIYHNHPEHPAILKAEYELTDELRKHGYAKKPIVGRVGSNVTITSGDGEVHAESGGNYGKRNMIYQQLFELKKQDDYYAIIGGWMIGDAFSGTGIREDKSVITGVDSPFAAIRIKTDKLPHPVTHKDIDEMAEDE

SMILES: CNCCNC(=O)CN1C(=O)Cc2c([nH]c3cc(C(F)(F)F)ccc23)-c2ccccc21 [FS-554]
- slope plot, LiTryS, representative dose-response plot [1]: 0.37 ± 0.03
- IC50 ([1]; n = 4, read-out: LiTryS IC50, representative dose-response plot): 320 ± 730 nM
- IC50 ([1]; read-out: LiTryS IC50): 350 nM
- IC50 [2]: ~75000 nM
- inhibition at 75 µM [2]: ~50%
- EC50 [3]: 112300 ± 1100 nM
- IC50 (LiTryS): 350 nM
- inhibition at 30 µM [4]: ~50%
